Paper PMC10007235 (Polymers, 2023)

Experiments:
[1] = Nucleation induction time measurement from supersaturated solution; assay type: physicochemical; settings: for Nucleation induction time / Time high (supersaturated) concentration maintained: 25 °C
Protocol: HPLC was analyzed using a Dionex-Ultimate 3000 HPLC (Dionex, Sunnyvale, CA, USA) equipped with an Inertsil ODS C18 (6.0 × 150 mm) column at 35 °C. […] The samples were analyzed by injecting 10 μL at 244 nm using a UV detector. […] The linearity was evaluated by linear regression analysis calculated using the least-squares regression method. […] The experiment was performed in triplicate (mean values + SD). Each polymer (chitosan and HPMC) was dissolved in an aqueous solution at a concentration of 500 μg/mL.

[2] = design: method as in a previous report; settings: absence of polymer; ref a previous report; cited from earlier work

Nucleation induction time ([1]; HPMC solution 500 μg/mL): 32 h
Nucleation induction time ([1]; absence of polymer (water)): 0.5 h
Nucleation induction time ([1]; chitosan solution 500 μg/mL): 24 h
Time high (supersaturated) concentration maintained ([1]; chitosan solution 500 μg/mL): 24 h
Time high (supersaturated) concentration maintained ([1]; water): 0.5 h
Enhancement in induction time ([1]; with chitosan and HPMC versus no polymer): 48–64 fold
Structure (SMILES): CC(C)c1nc(CN(C)C(=O)N[C@H](C(=O)N[C@@H](Cc2ccccc2)C[C@H](O)[C@H](Cc2ccccc2)NC(=O)OCc2cncs2)C(C)C)cs1 [RTV, ritonavir]
Induction time [2]: 120 min
